Consider three molecules from ChEMBL document CHEMBL6153109, “Switching Roles─Exploring Concentration-Dependent Agonistic versus Antagonistic Behavior of Integrin Ligands” (J Med Chem, 2025).

Calls of active or inactive are those of the source. The rule behind the calls is not given here.

By IC50 is commonly meant the midpoint of a concentration-inhibition curve.

Data set [1] relates to OV-MZ-6. The data set is described as follows: Inhibition of cell migration in human OV-MZ-6 cells expressing integrin alpha5beta1 assessed as delay in wound gap closure at 1 to 1000 nM measured after 72 hrs by wound scratch assay. It is filed as functional, cell-based. Particulars: dose 1-1000 nM.
For data set [2], the system named is M21. Nature of the data set: Inhibition of cell migration in human M21 cells expressing integrin alphaVbeta3 assessed as delay in wound gap closure at 1 nM measured after 9 to 72 hrs by wound scratch assay. Format: functional, cell-based. Particulars: time 9-72 hrs.
The target of data set [3] is T1, Integrin alpha-V/beta-3 (Homo sapiens, UniProt P05106+P06756). Nature of the data set: Agonist activity at integrin alphaVbeta3 in human M21 cells assessed as fold increase in FAK expression at 1 uM incubated for 24 hrs by Western blot analysis. It is filed as cell-based. The conditions noted are these: filed as agonist.
Data set [4] has as its target T2, Integrin alpha-5/beta-1 (Homo sapiens, UniProt P05556+P08648). The data set is described as follows: Agonist activity at integrin alpha5beta1 in human OV-MZ-6 cells assessed as fold increase in p-ERK1/2 expression at 1 uM incubated for 24 hrs by Western blot analysis. It is filed as cell-based. The conditions noted are these: filed as agonist.
Data set [5] concerns the target T1, Integrin alpha-V/beta-3. The data set is described as follows: Agonist activity at integrin alphaVbeta3 in human M21 cells assessed as increase in p-FAK expression at 1 uM incubated for 24 hrs by Western blot analysis. It is filed as cell-based.
Data set [6] concerns the target T2, Integrin alpha-5/beta-1. The data set is described as follows: Agonist activity at integrin alpha5beta1 in human OV-MZ-6 cells assessed as fold increase in FAK expression at 1 uM incubated for 24 hrs by Western blot analysis (reference value: 1). It is filed as cell-based. The conditions noted are these: filed as agonist. For orientation: A western blot detects proteins with antibodies after separation by electrophoresis.

Data set [7] addresses T1, Integrin alpha-V/beta-3. The data set is described as follows: Agonist activity at integrin alphaVbeta3 in human M21 cells assessed as increase in FAK expression at 1 nM incubated for 5 to 60 mins by Western blot analysis. Particulars: filed as agonist, time 5-60 min. Format: cell-based.
Data set [8] concerns the target T1, Integrin alpha-V/beta-3. Nature of the data set: Agonist activity at integrin alphaVbeta3 in human M21 cells assessed as increase in FAK expression at 1 uM incubated for 5 to 60 mins by Western blot analysis. Format: cell-based. Particulars: time 5-60 min.
For data set [9], the target named is T1, Integrin alpha-V/beta-3. Nature of the data set: Agonist activity at integrin alphaVbeta3 in human M21 cells assessed as increase in p-FAK expression at 1 to 1000 nM incubated for 5 to 60 mins by Western blot analysis. Particulars: dose 1-1000 nM, time 5-60 min. Format: cell-based.
In data set [10] the target is T2, Integrin alpha-5/beta-1. The data set is described as follows: Agonist activity at integrin alpha5beta1 in human OV-MZ-6 cells assessed as increase in FAK expression at 1 nM incubated for 5 to 60 mins by Western blot analysis. It is filed as cell-based. The conditions noted are these: filed as agonist, time 5-60 min.
Data set [11] addresses T2, Integrin alpha-5/beta-1. The data set is described as follows: Agonist activity at integrin alpha5beta1 in human OV-MZ-6 cells assessed as fold increase in p-FAK expression at 1 nM incubated for 5 mins by Western blot analysis (reference value: 1). Format: cell-based. Particulars: filed as agonist.
Data set [12] deals with T2, Integrin alpha-5/beta-1. Nature of the data set: Agonist activity at integrin alpha5beta1 in human OV-MZ-6 cells assessed as increase in p-FAK expression at 1 nM measured after 60 mins by Western blot analysis. Format: cell-based.
Data set [13] has as its system M21. Nature of the data set: Inhibition of cell migration in human M21 cells expressing integrin alphaVbeta3 assessed as cell coverage at 1 uM measured within 72 hrs by wound scratch assay (reference value: 95 %). Format: functional. Also noted: scale not given: the % may be the effect or the level left.
The test system of data set [14] is M21. Nature of the data set: Inhibition of cell adhesion in human M21 cells expressing integrin alphaVbeta3 at 1 uM measured after 48 hrs by microscopic imaging analysis. It is filed as functional, cell-based.
The test system of data set [15] is M21. Nature of the data set: Inhibition of cell adhesion in human M21 cells expressing integrin alphaVbeta3 at 1 nM measured after 48 hrs by microscopic imaging analysis. It is filed as functional, cell-based.
A short description of data set [16]: Drug localization in cell membrane of human M21 cells overexpressing integrin alphaVbeta3 at 1 uM measured within 3 mins by CellMask green staining based fluorescence analysis. It is filed as ADME, cell membranes. Particulars: m21, 0.05 h.
Data set [17] can be described thus: Drug localization in cell membrane of human M21 cells overexpressing integrin alphaVbeta3 at 1 uM measured at 30 mins by CellMask green staining based fluorescence analysis. The conditions noted are these: m21, 0.5 h. It is filed as ADME, cell membranes.
Data set [18] is described as follows: Drug uptake in human M21 cells overexpressing integrin alphaVbeta3 at 1 uM measured at 60 to 300 mins by Hoechst 33342 staining based fluorescence analysis. Format: ADME, cell-based. The conditions noted are these: m21, 1 µM, time 60-300 min.
The nature of data set [19]: Drug uptake in human OV-MZ-6 cells overexpressing integrin […] at 1 uM measured after 300 mins by Hoechst 33342 staining based fluorescence analysis. Format: ADME, cell-based. Particulars: ov-mz-6, 5 h.
In data set [20] the target is T2, Integrin alpha-5/beta-1. The data set is described as follows: Agonist activity at integrin alpha5beta1 in human OV-MZ-6 cells assessed as increase in FAK expression at 1 uM incubated for 24 hrs by Western blot analysis. It is filed as cell-based.
Data set [21] addresses T1, Integrin alpha-V/beta-3. The data set is described as follows: Competitive binding affinity to human Integrin alphaVbeta3 incubated for 1 hrs in presence of vitronectin by ELISA based spectrophotometric analysis. It is filed as protein-complex assay. A general note: ELISA stands for enzyme-linked immunosorbent assay.
The target in data set [22] is T3, Integrin alpha-V/beta-6 (Homo sapiens, UniProt P06756+P18564). The data set is described as follows: Competitive binding affinity to human Integrin alphaVbeta6 incubated for 1 hrs in presence of […] of TGF-beta1 by ELISA based spectrophotometric analysis. It is filed as protein-complex assay.
In data set [23] the test system is HN. Nature of the data set: Effect on cell migration in human HN cells expressing alphaVbeta6 at 1 to 1000 nM measured after 48 hrs by microscopic imaging analysis. It is filed as functional, cell-based. The conditions noted are these: dose 1-1000 nM.
Data set [24] has as its target T1, Integrin alpha-V/beta-3. The data set is described as follows: Agonist activity at integrin alphaVbeta3 in human M21 cells assessed as increase in FAK expression at 1 uM incubated for 24 hrs by Western blot analysis. Format: cell-based.
Data set [25] has as its target T1, Integrin alpha-V/beta-3. The data set is described as follows: Agonist activity at integrin alphaVbeta3 in human M21 cells assessed as increase in p-ERK1/2 expression at 1 uM incubated for 24 hrs by Western blot analysis. It is filed as cell-based.
For data set [26], the target named is T1, Integrin alpha-V/beta-3. Nature of the data set: Agonist activity at integrin alphaVbeta3 in human M21 cells assessed as increase in ERK1/2 expression at 1 uM incubated for 24 hrs by Western blot analysis. It is filed as cell-based.
For data set [27], the target named is T2, Integrin alpha-5/beta-1. Nature of the data set: Agonist activity at integrin alpha5beta1 in human OV-MZ-6 cells assessed as increase in p-FAK expression at 1 uM incubated for 24 hrs by Western blot analysis. It is filed as cell-based.
Data set [28] has as its target T2, Integrin alpha-5/beta-1. The data set is described as follows: Agonist activity at integrin alpha5beta1 in human OV-MZ-6 cells assessed as increase in ERK1/2 expression at 1 uM incubated for 24 hrs by Western blot analysis. It is filed as cell-based.
For data set [29], the target named is T2, Integrin alpha-5/beta-1. Nature of the data set: Agonist activity at integrin alpha5beta1 in human OV-MZ-6 cells assessed as increase in p-ERK1/2 expression at 1 uM incubated for 24 hrs by Western blot analysis. It is filed as cell-based.
In data set [30] the target is T3, Integrin alpha-V/beta-6. Nature of the data set: Agonist activity at integrin alphaVbeta6 in human HN cells assessed as increase in FAK expression at 1 to 1000 nM measured within 60 mins by Western blot analysis. Particulars: filed as agonist, dose 1-1000 nM. Format: cell-based.
In data set [31] the target is T2, Integrin alpha-5/beta-1. The data set is described as follows: Agonist activity at integrin alpha5beta1 in human OV-MZ-6 cells assessed as increase in FAK expression at 1 to 1000 nM measured after 5 to 60 mins by Western blot analysis. Format: cell-based. The conditions noted are these: dose 1-1000 nM, time 5-60 min.
Data set [32] concerns the target T3, Integrin alpha-V/beta-6. The data set is described as follows: Agonist activity at integrin alphaVbeta6 in human HN cells assessed as fold increase in p-FAK expression at 1 nM measured within 30 mins by Western blot analysis (reference value: 1). It is filed as cell-based. Particulars: filed as agonist.
In data set [33] the target is T3, Integrin alpha-V/beta-6. Nature of the data set: Agonist activity at integrin alphaVbeta6 in human HN cells assessed as fold increase in p-FAK expression at 1 uM measured within 30 mins by Western blot analysis (reference value: 1). Format: cell-based. The conditions noted are these: filed as agonist.
For data set [34], the target named is T2, Integrin alpha-5/beta-1. The data set is described as follows: Agonist activity at integrin alpha5beta1 in human OV-MZ-6 cells assessed as fold increase in p-FAK expression at 1 nM measured after 5 to 60 mins by Western blot analysis (reference value: 1). Format: cell-based. The conditions noted are these: filed as agonist, time 5-60 min.
Data set [35] concerns HN. The data set is described as follows: Effect on cell migration in human HN cells expressing integrin alphaVbeta6 at 1 to 1000 nM measured after 9 to 24 hrs by wound scratch assay. Format: functional, cell-based. Particulars: dose 1-1000 nM, time 9-24 hrs.
Data set [36] has as its system OV-MZ-6. The data set is described as follows: Inhibition of cell migration in human OV-MZ-6 cells expressing integrin alpha5beta1 assessed as delay in wound gap closure at 1 to 1000 nM measured immediately by wound scratch assay. Format: functional, cell-based. The conditions noted are these: dose 1-1000 nM.

Turning to `C#CCCC(=O)NCCCOc1ccc(C(=O)N[C@H](CC(=O)O)Cc2ccc(OCCCNc3cc(OC)ccn3)cc2)cc1`, the inhibition result in the data set with OV-MZ-6 [1] and in the data set on M21 [14] was “Active” each time. For the same molecule, the inhibition entry in the data set with M21 [2] and in the data set on M21 [15] was “inactive” throughout. Also, the fold change (FC) came out at 2 on Integrin alpha-V/beta-3 [3], 2.4 at Integrin alpha-5/beta-1 [4], 1.7 at Integrin alpha-5/beta-1 [6] and 2 at Integrin alpha-5/beta-1 [11]. Moreover, the result at Integrin alpha-V/beta-3 [5], at Integrin alpha-V/beta-3 [8], at Integrin alpha-V/beta-3 [9] and at Integrin alpha-5/beta-1 [12] was inactive. Also, the outcome at Integrin alpha-V/beta-3 [7] was Active. Moreover, the Activity result at Integrin alpha-5/beta-1 [10] is given as “Active; Slight Increase Observed”; in the data set on M21 [13] it was 80%.

In the case of `COc1ccnc(NCCCOc2ccc(C[C@@H](CC(=O)O)NC(=O)c3ccc(OCCCNC(=O)CCCCCNC(=O)CCCCC[N+]4=C(/C=C/C=C/C=C5/N(C)c6ccc7ccccc7c6C5(C)C)C(C)(C)c5c4ccc4ccccc54)cc3)cc2)c1`, the Drug uptake entry in data set [16], in [17], in data set [18] and in [19] was “Active” each time.

`CC(C)C[C@@H]1NC(=O)[C@H](CC(=O)O)NC(=O)CNC(=O)[C@H](CCCNC(=N)N)NC(=O)[C@H](Cc2ccccc2)NC(=O)[C@H](CCCCN)N(C)C(=O)[C@H]2CCCN2C(=O)[C@H](Cc2ccccc2)NC(=O)[C@H](C)NC1=O`: the inhibition entry in the data set on OV-MZ-6 [1] is “inactive”. In addition, the outcome at Integrin alpha-5/beta-1 [20], with HN [23], on Integrin alpha-V/beta-3 [5], at Integrin alpha-V/beta-3 [24], on Integrin alpha-V/beta-3 [25] and on Integrin alpha-V/beta-3 [26] was inactive. The outcome on Integrin alpha-5/beta-1 [27], on Integrin alpha-5/beta-1 [28], at Integrin alpha-5/beta-1 [29], on Integrin alpha-5/beta-1 [31] and in the data set on HN [35] was inactive. Further, the IC50 on Integrin alpha-V/beta-3 [21] is over 1000 nM; on Integrin alpha-V/beta-6 [22] it was 0.28 nM. For the same molecule, on Integrin alpha-V/beta-6 [30], the Activity entry is recorded as “Active; Slight Increase Observed”. Besides, the fold change (FC) on Integrin alpha-V/beta-6 [32] came to 5; at Integrin alpha-V/beta-6 [33] it was 6; on Integrin alpha-5/beta-1 [34] it was 2.9. The inhibition result in the data set with OV-MZ-6 [36] is “Active”.
